From PubChem BioAssay (NCI)
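How tested: cells in 96-well plates exposed to compound for 48 hours at five concentrations. GI50 marks 50% less growth. TGI: concentration producing complete growth inhibition.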

Experiments:
Assay in all cases: growth of human tumour cells (NCI), 48 h
SF-295 CNS = test system: SF-295 CNS
SF-268 CNS = test system: SF-268 CNS
COLO 205 colon = test system: COLO 205 colon
SR leukemia = test system: SR leukemia
MDA-MB-231 breast = test system: MDA-MB-231 breast
OVCAR-8 ovarian = test system: OVCAR-8 ovarian
MOLT-4 leukemia = test system: MOLT-4 leukemia
LOX IMVI melanoma = test system: LOX IMVI melanoma
HOP-62 NSCLC = test system: HOP-62 NSCLC
IGROV1 ovarian = test system: IGROV1 ovarian
T-47D breast = test system: T-47D breast
HCT-116 colon = test system: HCT-116 colon
MALME-3M melanoma = test system: MALME-3M melanoma
HCC-2998 colon = test system: HCC-2998 colon
RPMI-8226 leukemia = test system: RPMI-8226 leukemia
CCRF-CEM leukemia = test system: CCRF-CEM leukemia
HS 578T breast = test system: HS 578T breast
A549 NSCLC = test system: A549 NSCLC
SK-MEL-2 melanoma = test system: SK-MEL-2 melanoma
U251 CNS = test system: U251 CNS
KM12 colon = test system: KM12 colon
OVCAR-5 ovarian = test system: OVCAR-5 ovarian
OVCAR-3 ovarian = test system: OVCAR-3 ovarian
A498 renal = test system: A498 renal
NCI-H226 lung = test system: NCI-H226 lung
SW-620 colon = test system: SW-620 colon
K-562 leukemia = test system: K-562 leukemia
SK-OV-3 ovarian = test system: SK-OV-3 ovarian
SK-MEL-28 melanoma = test system: SK-MEL-28 melanoma
UO-31 renal = test system: UO-31 renal
BT-549 breast = test system: BT-549 breast
786-0 renal = test system: 786-0 renal
OVCAR-4 ovarian = test system: OVCAR-4 ovarian
SNB-75 CNS = test system: SNB-75 CNS
UACC-257 melanoma = test system: UACC-257 melanoma
NCI-H23 lung = test system: NCI-H23 lung
UACC-62 melanoma = test system: UACC-62 melanoma
CAKI-1 renal = test system: CAKI-1 renal
TK-10 renal = test system: TK-10 renal
SF-539 CNS = test system: SF-539 CNS
DU-145 prostate = test system: DU-145 prostate
RXF 393 renal = test system: RXF 393 renal
SK-MEL-5 melanoma = test system: SK-MEL-5 melanoma
NCI-H522 lung = test system: NCI-H522 lung
PC-3 prostate = test system: PC-3 prostate
NCI/ADR-RES ovarian = test system: NCI/ADR-RES ovarian
HCT-15 colon = test system: HCT-15 colon
MCF7 breast = test system: MCF7 breast
SN12C renal = test system: SN12C renal
SNB-19 CNS = test system: SNB-19 CNS
M14 melanoma = test system: M14 melanoma
ACHN renal = test system: ACHN renal
HL-60(TB) leukemia = test system: HL-60(TB) leukemia
HT29 colon = test system: HT29 colon

## O=[N+]([O-])c1cc2c(ccc3occc32)o1
SF-295 CNS
  GI50: 2.04 µM
  TGI: 5.75 µM
SF-268 CNS
  GI50: 2.21 µM
  TGI: 12.8 µM
COLO 205 colon
  GI50: 1.57 µM
  TGI: 3.12 µM
SR leukemia
  GI50: 2 µM
  TGI: 9.64 µM
MDA-MB-231 breast
  GI50: 1.84 µM
  TGI: 5.83 µM
OVCAR-8 ovarian
  GI50: 2.45 µM
  TGI: 21 µM
MOLT-4 leukemia
  GI50: 2.31 µM
  TGI: 28.6 µM
LOX IMVI melanoma
  GI50: 1.25 µM
  TGI: 3.85 µM
HOP-62 NSCLC
  GI50: 3.94 µM
  TGI: 21.5 µM
IGROV1 ovarian
  GI50: 1.55 µM
  TGI: 7.32 µM
T-47D breast
  GI50: 41.3 µM
  TGI: > 100 µM
HCT-116 colon
  GI50: 1.34 µM
  TGI: 5.73 µM
MALME-3M melanoma
  GI50: 1.54 µM
  TGI: 3.11 µM
HCC-2998 colon
  GI50: 1.88 µM
  TGI: 3.88 µM
RPMI-8226 leukemia
  GI50: 4 µM
  TGI: 44.3 µM
CCRF-CEM leukemia
  GI50: 1.87 µM
  TGI: 7.88 µM
HS 578T breast
  GI50: 4.29 µM
  TGI: 70.2 µM
A549 NSCLC
  GI50: 3.21 µM
  TGI: 12.4 µM
SK-MEL-2 melanoma
  GI50: 2.03 µM
  TGI: 4.56 µM
U251 CNS
  GI50: 3.56 µM
  TGI: 16.4 µM
KM12 colon
  GI50: 2.78 µM
  TGI: 7.31 µM
OVCAR-5 ovarian
  GI50: 3.5 µM
  TGI: 15.4 µM
OVCAR-3 ovarian
  GI50: 3.77 µM
  TGI: 15.8 µM
A498 renal
  GI50: 2.21 µM
  TGI: 4.58 µM
NCI-H226 lung
  GI50: 4.04 µM
  TGI: 31.7 µM
SW-620 colon
  GI50: 3.17 µM
  TGI: > 100 µM
K-562 leukemia
  GI50: 2.14 µM
  TGI: 8.03 µM
SK-OV-3 ovarian
  GI50: 3.03 µM
  TGI: 9.66 µM
SK-MEL-28 melanoma
  GI50: 2.17 µM
  TGI: 6.27 µM
UO-31 renal
  GI50: 1.99 µM
  TGI: 7.65 µM
BT-549 breast
  GI50: 1.87 µM
  TGI: 4.4 µM
786-0 renal
  GI50: 2.37 µM
  TGI: 5 µM
OVCAR-4 ovarian
  GI50: 27.2 µM
  TGI: > 100 µM
SNB-75 CNS
  GI50: 3.08 µM
  TGI: 53.9 µM
UACC-257 melanoma
  GI50: 1.77 µM
  TGI: 3.88 µM
NCI-H23 lung
  GI50: 2.69 µM
  TGI: 15.6 µM
UACC-62 melanoma
  GI50: 1.45 µM
  TGI: 3.41 µM
CAKI-1 renal
  GI50: 1.87 µM
  TGI: 4.57 µM
TK-10 renal
  GI50: 5.46 µM
  TGI: 31.5 µM
SF-539 CNS
  GI50: 2.02 µM
  TGI: 4.55 µM
DU-145 prostate
  GI50: 1.16 µM
  TGI: 9.84 µM
RXF 393 renal
  GI50: 1.49 µM
  TGI: 3.17 µM
SK-MEL-5 melanoma
  GI50: 1.17 µM
  TGI: 2.54 µM
NCI-H522 lung
  GI50: 1.67 µM
  TGI: 4.45 µM
PC-3 prostate
  GI50: 10.2 µM
  TGI: 38.4 µM
NCI/ADR-RES ovarian
  GI50: 3.28 µM
  TGI: 30.9 µM
HCT-15 colon
  GI50: 1.96 µM
  TGI: 5.97 µM
MCF7 breast
  GI50: 0.701 µM
  TGI: 21.2 µM
SN12C renal
  GI50: 2.96 µM
  TGI: > 100 µM
SNB-19 CNS
  GI50: 3.78 µM
  TGI: 45.9 µM
M14 melanoma
  GI50: 1.41 µM
  TGI: 3 µM
ACHN renal
  GI50: 0.561 µM
  TGI: 8.03 µM
HL-60(TB) leukemia
  GI50: 1.59 µM
  TGI: 6.09 µM
HT29 colon
  GI50: 2.45 µM
  TGI: 18.8 µM
